Patent publication US20010053796A1, “Delta-aminolevulinic acid for prevention and treatment of infection microorganisms and parasite” (priority 2000, published 2001)
Read-outs that look alike come from different tables or passages of the source.

How the values were obtained:
Scutica = assay: Extinction effect for Scutica in vitro; assay type: cell-based
Protocol: Scutica used in this experiment was taken from epidermal mucus of infected flatfish and suspended in HBSS. The suspension was kept at room temperature for 30 min and centrifuged at 800 rpm for 10 min. The supernatant was removed. The pellet was suspended in MEM-10 (minimum essential medium, 10% FBS, streptomycine, penicilin) and kept for 30 min, and then centrifuged in the same manner as above. The supernatant was removed and left imagoes was gained and made into imagoes suspension with certain number of imagoes by counting with the blood counting machine. The imagoes suspension was subcultured in vitro and inoculated to prepared FHM cell of certain number (2.5×10^5 cells/mL) and then cultured at 17° C. Before carrying out the experiment, by measuring the extinction effect for Scutica according to the concentration of δ-aminolevulinic acid and reaction time, optimum δ-aminolevulinic acid concentration and treatment time was examined for Scutica extermination. The Scutica culture solution cultured in FHM cell line was centrifuged at 3000 rpm for 5 min. The supernatant was removed and was added to PBS. It was washed 3 times to use for the experiment. 1.0 M δ-aminolevulinic acid solution made from sterilized 3rd distilled water was diluted by 2-fold up to 1000-fold (1.0 mM). Scutica was added to each well of 96-well microplate at an amount of 50 μL. Then, δ-aminolevulinic acid solution diluted by 2 steps were added and cultured for 120 min while the viability of Scutica was monitored. During the culture for 120 min, extinction time was measured in 10 min intervals, at each concentration. Between each inoculation, they were stirred for 5 min and were kept for 5 min. after reaction, 1% trypan blue which is staining solution for organism was added to each wells at an amount of 100 μL and mixed. In cultured Scutica with the diluted solution of δ-aminolevulinic acid, the number of parasites was counted by the blood counting machine, according to time. […] Through the 60 min-treatment, more than 50% of Scutica were extinct. At the actual concentration of 2 mM, about 50% of Scutica was extinct through 1 hour-treatment.

[1] = tested on: FHM (Fathead Minnow Epithelioma); details: 24 h
Protocol: δ-aminolevulinic acid feed were prepared to 1.0 M concentration (0. 167 g/mL HBSS) and diluted by 10-fold dilution method. 100 μl of each fish cell line suspension of 2.5×10^5 were placed into 96-well microplate and then, 100 μl of each of the resulting diluted solution, 4 well/dilution unit, were added respectively. Fish cell lines, which were used for this cell toxicity experiment of δ-aminolevulinic acid, were RTG-2 (Rainbow Trout Gonad), FHM (Fathead Minnow Epithelioma) and CHSE (Chinook Salmon Embryo) lotted out from Dr. M. Yoshimizu of the Department of Fisheries, Hokkaido University, Japan. For these experimental cells, 100 U/mL penicillin (Sigma), 100 μl/mL streptomycin (Sigma) and MEM media supplemented with 5% fetal bovine serum (FBS, Gibco) for cell culture were used. Cultured cells in 96-well microplate was incubated for 3 hrs at 15° C. and δ-aminolevulinic acid were added to wells at amounts of 100 μl of 0, 1.0, 10, 50 and 100 mM and incubated for 24 hrs at 18° C. As a control group, instead of δ-aminolevulinic acid, HBSS was added at the same amount. […] Absorbance was measured with an ELISA reader at 570 μl.

NCC(=O)CCC(=O)O [δ-aminolevulinic acid]
below 10 mM: safe range of toxicity [1]
20%: viability at 30000 µM (Scutica; read-out: Viability (%) of Scutica, 30 mM, reaction time 10)
0%: viability at 15000 µM (Scutica; read-out: Viability (%) of Scutica, 15 mM, reaction time 70) | viability at 15000 µM (Scutica; read-out: Viability (%) of Scutica, 15 mM, reaction time 80) | viability at 15000 µM (Scutica; read-out: Viability (%) of Scutica, 15 mM, reaction time 90) | viability at 15000 µM (Scutica; read-out: Viability (%) of Scutica, 15 mM, reaction time 110) | viability at 15000 µM (Scutica; read-out: Viability (%) of Scutica, 15 mM, reaction time 120) | viability at 30000 µM (Scutica; read-out: Viability (%) of Scutica, 30 mM, reaction time 20) | viability at 30000 µM (Scutica; read-out: Viability (%) of Scutica, 30 mM, reaction time 30) | viability at 30000 µM (Scutica; read-out: Viability (%) of Scutica, 30 mM, reaction time 40) | viability at 30000 µM (Scutica; read-out: Viability (%) of Scutica, 30 mM, reaction time 50) | viability at 30000 µM (Scutica; read-out: Viability (%) of Scutica, 30 mM, reaction time 60) | viability at 30000 µM (Scutica; read-out: Viability (%) of Scutica, 30 mM, reaction time 70) | viability at 30000 µM (Scutica; read-out: Viability (%) of Scutica, 30 mM, reaction time 80) | viability at 30000 µM (Scutica; read-out: Viability (%) of Scutica, 30 mM, reaction time 90) | viability at 30000 µM (Scutica; read-out: Viability (%) of Scutica, 30 mM, reaction time 110) | viability at 30000 µM (Scutica; read-out: Viability (%) of Scutica, 30 mM, reaction time 120) | viability at 60000 µM (Scutica; read-out: Viability (%) of Scutica, 60 mM, reaction time 10) | viability at 60000 µM (Scutica; read-out: Viability (%) of Scutica, 60 mM, reaction time 20) | viability at 60000 µM (Scutica; read-out: Viability (%) of Scutica, 60 mM, reaction time 30) | viability at 60000 µM (Scutica; read-out: Viability (%) of Scutica, 60 mM, reaction time 40) | viability at 60000 µM (Scutica; read-out: Viability (%) of Scutica, 60 mM, reaction time 50) | viability at 60000 µM (Scutica; read-out: Viability (%) of Scutica, 60 mM, reaction time 60) | viability at 60000 µM (Scutica; read-out: Viability (%) of Scutica, 60 mM, reaction time 70) | viability at 60000 µM (Scutica; read-out: Viability (%) of Scutica, 60 mM, reaction time 80) | viability at 60000 µM (Scutica; read-out: Viability (%) of Scutica, 60 mM, reaction time 90) | viability at 60000 µM (Scutica; read-out: Viability (%) of Scutica, 60 mM, reaction time 110) | viability at 60000 µM (Scutica; read-out: Viability (%) of Scutica, 60 mM, reaction time 120) | viability at 125000 µM (Scutica; read-out: Viability (%) of Scutica, 125 mM, reaction time 10) | viability at 125000 µM (Scutica; read-out: Viability (%) of Scutica, 125 mM, reaction time 20) | viability at 125000 µM (Scutica; read-out: Viability (%) of Scutica, 125 mM, reaction time 30) | viability at 125000 µM (Scutica; read-out: Viability (%) of Scutica, 125 mM, reaction time 40) | viability at 125000 µM (Scutica; read-out: Viability (%) of Scutica, 125 mM, reaction time 50) | viability at 125000 µM (Scutica; read-out: Viability (%) of Scutica, 125 mM, reaction time 60) | viability at 125000 µM (Scutica; read-out: Viability (%) of Scutica, 125 mM, reaction time 70) | viability at 125000 µM (Scutica; read-out: Viability (%) of Scutica, 125 mM, reaction time 80) | viability at 125000 µM (Scutica; read-out: Viability (%) of Scutica, 125 mM, reaction time 90) | viability at 125000 µM (Scutica; read-out: Viability (%) of Scutica, 125 mM, reaction time 110) | viability at 125000 µM (Scutica; read-out: Viability (%) of Scutica, 125 mM, reaction time 120) | viability at 250000 µM (Scutica; read-out: Viability (%) of Scutica, 250 mM, reaction time 10) | viability at 250000 µM (Scutica; read-out: Viability (%) of Scutica, 250 mM, reaction time 20) | viability at 250000 µM (Scutica; read-out: Viability (%) of Scutica, 250 mM, reaction time 30) | viability at 250000 µM (Scutica; read-out: Viability (%) of Scutica, 250 mM, reaction time 40) | viability at 250000 µM (Scutica; read-out: Viability (%) of Scutica, 250 mM, reaction time 50) | viability at 250000 µM (Scutica; read-out: Viability (%) of Scutica, 250 mM, reaction time 60) | viability at 250000 µM (Scutica; read-out: Viability (%) of Scutica, 250 mM, reaction time 70) | viability at 250000 µM (Scutica; read-out: Viability (%) of Scutica, 250 mM, reaction time 80) | viability at 250000 µM (Scutica; read-out: Viability (%) of Scutica, 250 mM, reaction time 90) | viability at 250000 µM (Scutica; read-out: Viability (%) of Scutica, 250 mM, reaction time 110) | viability at 250000 µM (Scutica; read-out: Viability (%) of Scutica, 250 mM, reaction time 120) | viability at 500000 µM (Scutica; read-out: Viability (%) of Scutica, 500 mM, reaction time 10) | viability at 500000 µM (Scutica; read-out: Viability (%) of Scutica, 500 mM, reaction time 20) | viability at 500000 µM (Scutica; read-out: Viability (%) of Scutica, 500 mM, reaction time 30) | viability at 500000 µM (Scutica; read-out: Viability (%) of Scutica, 500 mM, reaction time 40) | viability at 500000 µM (Scutica; read-out: Viability (%) of Scutica, 500 mM, reaction time 50) | viability at 500000 µM (Scutica; read-out: Viability (%) of Scutica, 500 mM, reaction time 60) | viability at 500000 µM (Scutica; read-out: Viability (%) of Scutica, 500 mM, reaction time 70) | viability at 500000 µM (Scutica; read-out: Viability (%) of Scutica, 500 mM, reaction time 80) | viability at 500000 µM (Scutica; read-out: Viability (%) of Scutica, 500 mM, reaction time 90) | viability at 500000 µM (Scutica; read-out: Viability (%) of Scutica, 500 mM, reaction time 110) | viability at 500000 µM (Scutica; read-out: Viability (%) of Scutica, 500 mM, reaction time 120)
